Source: patent publication US20250289780A1, “N,N'-DIPHENYL-4,4'-BIPHENYLDICARBOXAMIDE ANALOGS AND THEIR USE IN CANCER TREATMENT” (Board of Regents, The University of Texas System, priority 2024, published 2025)
Entries after “also recorded” stand apart in the source; their conditions may differ.

How the values were obtained:
[1] = test system: PC3 cells; experiment: MTT anti-proliferative assay, PC3; type: cell-based; conditions: for cell growth inhibition: 10 μM, 24 h, MTT
Description: (§1) FIGS. 5A-5F show cellular activity of mimetics 1, 14, and 23. FIG. 5A: effect of mimetics on the interaction between Bak and antiapoptotic proteins. PC3 cells were incubated in the presence or absence of mimetics (10 μM) for 24 h and cell lysates were analyzed by immunoprecipitation followed by western blotting. FIG. 5B: mitochondrial membrane depolarization by mimetics. PC3 cells that were treated with mimetics, ABT737 or MIM1 were stained with JC-1 dye and analyzed for change in red to green fluorescence intensity ratio of JC-1 dye. FIG. 5C: activation of caspase-3/-9 by mimetics. PC3 cells were treated with different concentrations of mimetics, ABT737, and MIM1 for 24 h and activities of caspase-3/-9 were measured using caspase-specific colorimetric assay kits. FIG. 5D: downregulation of Mcl-1 by siRNA. PC3 cells were transfected with Mcl-1 siRNA (30 μmol) or control siRNA (30 μmol) for 24 h and cell lysates were analyzed by western blotting. FIG. 5E: effect of Mcl-1 knockdown on mimetics-induced caspase activation. Same as for C except for the use of Mcl-1 knockdown PC3 cells. FIG. 5F: effect of Mcl-1 knockdown on mimetics-induced cell growth. PC3 cells were treated with mimetics (10 μM) or MIM1 (10 μM) for 24 h and cell viability was determined using MTT assay.
(§2) These compounds were examined for their capabilities of inducing apoptosis. When effectors are released from anti-apoptotic proteins, they form pores on the outer mitochondrial membrane, leading to mitochondrial outer membrane permeabilization (MOMP) and cytochrome c release which promote caspase activation. The formation of pores on the outer mitochondrial membrane and the resulting change in mitochondrial membrane potential were determined by JC-1 staining. […] The anti-proliferative activity was also evaluated using MTT assay in prostate cancer cells.
(§3) Its specificity to Mcl-1 on prostate cancer cells with Mcl-1 silenced by siRNA (FIG. 5D) was further investigated. Compound 23 induced up to 3-fold increase in caspase-3/-9 activity in untransfected and control-transfected PC3 cells. Knockdown of Mcl-1, however, decreased the M161-induced caspase activity to the basal level (FIG. 5E). In MTT assay, 23 inhibited cell growth by 64% and 62% in untransfected and control-transfected PC3 cells, respectively.

[2] = test system: LNCaP cells; experiment: MTT anti-proliferative assay, LNCaP; type: cell-based; conditions: Homo sapiens, read-out: IC50, cell growth
Description: as §2

[3] = target: T1, interaction of Bak with Mcl-1 (Homo sapiens, UniProt Q07820); experiment: Co-immunoprecipitation in PC3 cells, Bak/Mcl-1; type: cell-based; conditions: 10 μM, 24 h, immunoprecipitation and western blotting
T1 construct: endogenous in cells; host or cells: PC3 cells
T1 sequence (Q07820 whole entry): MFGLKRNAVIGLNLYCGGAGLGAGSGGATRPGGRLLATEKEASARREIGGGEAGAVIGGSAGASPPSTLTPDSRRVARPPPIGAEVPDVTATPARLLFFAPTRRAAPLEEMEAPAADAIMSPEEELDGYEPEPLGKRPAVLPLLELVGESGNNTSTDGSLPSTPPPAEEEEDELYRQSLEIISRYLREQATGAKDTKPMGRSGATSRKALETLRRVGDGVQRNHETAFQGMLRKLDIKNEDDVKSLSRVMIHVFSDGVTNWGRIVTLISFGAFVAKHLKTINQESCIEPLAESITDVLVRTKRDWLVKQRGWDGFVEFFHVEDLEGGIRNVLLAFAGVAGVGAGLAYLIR
Description: as §1, with “assay. […]” for “assay.”

[4] = test system: caspase-3/-9; experiment: Caspase-3/-9 colorimetric activity assay in PC3 cells; type: cell-based; conditions: for caspase-9/-3 activity (in words): PC3 cells, different concentrations, 24 h
Description: as §1, §2, §3

[5] = target: T2, interaction of Bak with Bcl-xL (Homo sapiens, UniProt Q07817); experiment: Co-immunoprecipitation in PC3 cells, Bak/Bcl-xL; type: cell-based; conditions: 10 μM, 24 h, immunoprecipitation and western blotting
T2 construct: endogenous in cells; host or cells: PC3 cells
T2 sequence (Q07817 whole entry): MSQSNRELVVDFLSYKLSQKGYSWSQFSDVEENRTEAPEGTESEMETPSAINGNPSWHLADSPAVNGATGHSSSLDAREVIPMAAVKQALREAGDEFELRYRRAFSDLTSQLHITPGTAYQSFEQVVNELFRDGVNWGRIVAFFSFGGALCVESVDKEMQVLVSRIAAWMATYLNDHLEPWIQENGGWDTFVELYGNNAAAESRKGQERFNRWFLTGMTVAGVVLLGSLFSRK
Description: as §1, with “assay. […]” for “assay.”

[6] = target: Mcl-1 (Homo sapiens, UniProt Q07820); experiment: Fluorescence polarization (FP) binding assay, Mcl-1
Chain of Mcl-1 (Q07820 whole entry): as the sequence (Q07820 whole entry) above
Description: (§4) FIGS. 3A-3B show binding affinity to Bcl-xL, Bcl-2 and Mcl-1 determined by FP assay. FIG. 3A: compounds 1-9 mimicking BH3 peptides of proapoptotic proteins (scaffold I). FIG. 3B: Bim-mimicking compounds 10-16 derived from scaffolds II-VIII.
(§5) Their binding affinities on Bcl-xL, Bcl-2, and Mcl-1 were determined by fluorescence polarization (FP) assays (FIG. 3A). […] The role of carboxylic acids at both ends of compound 1 was also studied.

[7] = target: Bcl-2 (Homo sapiens, UniProt P10415); experiment: Fluorescence polarization (FP) binding assay, Bcl-2
Chain of Bcl-2 (P10415 whole entry): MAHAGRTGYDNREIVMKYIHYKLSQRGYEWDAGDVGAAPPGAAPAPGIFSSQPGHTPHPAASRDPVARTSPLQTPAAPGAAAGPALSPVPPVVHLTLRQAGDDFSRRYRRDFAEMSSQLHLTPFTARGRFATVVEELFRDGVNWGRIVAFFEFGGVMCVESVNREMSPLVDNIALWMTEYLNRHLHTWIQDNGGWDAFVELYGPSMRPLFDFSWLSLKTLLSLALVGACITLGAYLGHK
Description: as §4, §5

[8] = target: T3, interaction of Bak with Bcl-2 (Homo sapiens, UniProt P10415); experiment: Co-immunoprecipitation in PC3 cells, Bak/Bcl-2; type: cell-based; conditions: 10 μM, 24 h, immunoprecipitation and western blotting
T3 construct: endogenous in cells; host or cells: PC3 cells
T3 sequence (P10415 whole entry): as above
Description: as §1, with “assay. […]” for “assay.”

[9] = test system: PC3 cells; experiment: Mitochondrial membrane depolarization, JC-1 staining; type: cell-based
Description: as §1, with “FIG. 5E: effect of Mcl-1 knockdown on mimetics-induced caspase activation. Same as for C except for the use of Mcl-1 knockdown PC3 cells. FIG. 5F: effect of Mcl-1 knockdown on mimetics-induced cell growth.” left out
These compounds were examined for their capabilities of inducing apoptosis. […] The formation of pores on the outer mitochondrial membrane and the resulting change in mitochondrial membrane potential were determined by JC-1 staining. […] The anti-proliferative activity was also evaluated using MTT assay in prostate cancer cells.

[10] = test system: DU145 cells; experiment: MTT anti-proliferative assay, DU145; type: cell-based; conditions: Homo sapiens, DU-145, read-out: IC50, cell growth
Description: as §2

[11] = target: Bcl-xL (Homo sapiens, UniProt Q07817); experiment: Fluorescence polarization (FP) binding assay, Bcl-xL
Chain of Bcl-xL (Q07817 whole entry): as the sequence (Q07817 whole entry) above
Description: as §4, §5

Structure (SMILES) | binding affinity to Mcl-1 (in words) [6] | binding affinity to Bcl-2 (in words) [7] | binding affinity to Bcl-xL (in words) [11] | also measured
CCC(C)COc1cc(-c2ccc(C(=O)Nc3ccc(C(=O)O)cc3OC(C)CC)c(OCCC(C)C)c2)ccc1C(=O)Nc1ccc(C(=O)O)cc1OCc1ccccc1 (stereo not shown) [Compound 1, 3-(Benzyloxy)-4-(4′-((2-(sec-butoxy)-4-carboxyphenyl)carbamoyl)-3′-(isopentyloxy)-3-(2-methylbutoxy)-[1,1′-biphenyl]-4-carboxamido)benzoic acid] | – | – | – | IC50 ([1]; Homo sapiens, PC-3, PC3, MTT assay, read-out: IC50, cell growth): 2870 to 9670 nM; IC50 [2]: 2870 to 9670 nM; disruption of the interaction of Bak with Mcl-1 [3]: disrupted the interaction; caspase-9/-3 activity (in words) [4]: induced caspase-9/-3 activity in a dose-dependent manner; disruption of the interaction of Bak with Bcl-xL [5]: disrupted the interaction; IC50 [6]: 140 to 230 nM; IC50 [7]: 140 to 230 nM; disruption of the interaction of Bak with Bcl-2 [8]: disrupted the interaction; red to green fluorescence intensity ratio of JC-1 dye [9]: significantly reduced; IC50 [10]: 2870 to 9670 nM; IC50 [11]: 140 to 230 nM
CCCCCOc1cc(-c2ccc(C(=O)Nc3ccc(C(=O)O)cc3OC(C)CC)c(OCCC(C)C)c2)ccc1C(=O)Nc1ccc(C(=O)O)cc1OCC(C)C (stereo not shown) [Compound 2] | low affinity | high affinity | low affinity | –
CCCCOc1cc(C(=O)O)ccc1NC(=O)c1ccc(-c2ccc(C(=O)Nc3ccc(C(=O)O)cc3OC(C)CC)c(OCCC(C)C)c2)cc1OCC(C)C (stereo not shown) [Compound 3] | no inhibition | no inhibition | no inhibition | –
CCC(C)COc1cc(-c2ccc(C(=O)Nc3ccc(C(=O)O)cc3OCC(C)C)c(OCCC(C)C)c2)ccc1C(=O)Nc1ccc(C(=O)O)cc1OCC(C)C (stereo not shown) [Compound 4] | – | very selective for inhibiting Bcl-2 over Bcl-xL and Mcl-1 | – | –
CCC(C)COc1cc(-c2ccc(C(=O)Nc3ccc(C(=O)O)cc3OC(C)C)c(OCCC(C)C)c2)ccc1C(=O)Nc1ccc(C(=O)O)cc1OC(C)CC (stereo not shown) [Compound 5] | – | – | negligible affinity; also recorded: not to Bcl-xL | –
CCCCCOc1cc(-c2ccc(C(=O)Nc3ccc(C(=O)O)cc3OCc3ccc(F)cc3)c(OCCC(C)C)c2)ccc1C(=O)Nc1ccc(C(=O)O)cc1OCc1ccccc1 [Compound 6] | did not bind | did not bind | did not bind | –
CCOc1cc(C(=O)O)ccc1NC(=O)c1ccc(-c2ccc(C(=O)Nc3ccc(C(=O)O)cc3OCC(C)C)c(OCCc3ccccc3)c2)cc1OCCC(C)C [Compound 7] | – | affinity only for Bcl-2 | – | –
CCC(C)COc1cc(-c2ccc(C(=O)Nc3ccc(C(=O)O)cc3OC(C)CC)c(OCCC(C)C)c2)ccc1C(=O)Nc1ccccc1OCc1ccccc1 (stereo not shown) [Compound 9] | complete loss in binding affinities | complete loss in binding affinities | complete loss in binding affinities | –
CCC(C)COc1cc(-c2ccc(C(=O)Nc3ccc(C(=O)O)c(OC(C)CC)c3)c(OCCC(C)C)c2)ccc1C(=O)Nc1ccc(C(=O)O)cc1OCc1ccccc1 (stereo not shown) [Compound 10] | maintaining affinity | maintaining affinity | lost affinity | –
CCC(C)COc1cc(-c2ccc(C(=O)Nc3ccc(C(=O)O)c(OC(C)CC)c3)c(OCCC(C)C)c2)ccc1C(=O)Nc1ccc(C(=O)O)c(OCc2ccccc2)c1 (stereo not shown) [Compound 11] | – | selectivity for Bcl-xL and Bcl-2 | selectivity for Bcl-xL and Bcl-2 | –
CCC(C)COc1cc(-c2ccc(C(=O)Nc3ccc(C(=O)O)cc3OC(C)CC)cc2OCCC(C)C)ccc1C(=O)Nc1ccc(C(=O)O)cc1OCc1ccccc1 (stereo not shown) [Compound 12] | significantly lost affinity | significantly lost affinity | significantly lost affinity | –
CCC(C)COc1cc(-c2ccc(C(=O)Nc3ccc(C(=O)O)cc3OC(C)CC)cc2OCCC(C)C)ccc1C(=O)Nc1ccc(C(=O)O)c(OCc2ccccc2)c1 (stereo not shown) [Compound 13] | – | substantially increased its affinity to Bcl-xL and Bcl-2 compared to Mcl-1 | substantially increased its affinity to Bcl-xL and Bcl-2 compared to Mcl-1 | –
CCC(C)Oc1cc(C(=O)O)ccc1NC(=O)c1ccc(-c2ccc(C(=O)Nc3ccc(C(=O)O)cc3OC(C)CC)c(OC(C)CC)c2)cc1OCCC(C)C (stereo not shown) [Compound 20] | negligible binding | – | negligible binding | IC50 [7]: 340 nM
CCC(C)COc1cc(-c2ccc(C(=O)Nc3ccc(C(=O)O)cc3OC(C)CC)c(OC(C)CC)c2)ccc1C(=O)Nc1ccc(C(=O)O)cc1OCc1ccccc1 (stereo not shown) [Compound 22] | – | – | selective affinity only to Bcl-xL | IC50 [11]: 650 nM
CCC(C)Oc1cc(C(=O)O)ccc1NC(=O)c1ccc(-c2ccc(C(=O)Nc3ccc(C(=O)O)cc3OC(C)CC)c(OC(C)C)c2)cc1OCCC(C)C (stereo not shown) [Compound 23] | selectively inhibited only Mcl-1 | – | – | cell growth inhibition ([1]; Mcl-1 knockdown PC3 cells): 18%; cell growth inhibition ([1]; control-transfected PC3 cells): 62%; cell growth inhibition ([1]; untransfected PC3 cells): 64%; disruption of the interaction of Bak with Mcl-1 [3]: selectively inhibited Mcl-1 over Bcl-xL and Bcl-2; induced caspase activity (in words) ([4]; Mcl-1 knockdown (siRNA) PC3 cells): basal level; caspase-9/-3 activity (in words) [4]: induced caspase-9/-3 activity in a dose-dependent manner; increase in caspase-3/-9 activity ([4]; control-transfected PC3 cells): up to 3 fold; increase in caspase-3/-9 activity ([4]; untransfected PC3 cells): up to 3 fold; IC50 [6]: 160 nM; red to green fluorescence intensity ratio of JC-1 dye [9]: significantly reduced
